Values of other authors, collected in patent US6685965B1, “PROCESS FOR STABILIZING LEVOGYRE ASCORBIC ACID (LAA), A STABLE AQUEOUS LAA COMPOSITION, A PROCESS FOR PREPARING A STABLE TOPICAL SOLUTION, AN EMULSION, A VITAMIN PRODUCT, AND A METHOD FOR COSMETIC, PHARMACEUTICAL OR NUTRITIONAL TREATMENT” (Industria E Comercio de Cosmeticos Natura LTDA., priority 1997, dated 2004).

What was measured:
human fibroblasts = human fibroblasts in vitro, in the presence of LAA
[1] = system: glucosaminoglycines, components of the extracellular matrix of the dermis; details: in the presence of LAA

O=C1OC(C(O)CO)C(O)=C1O (stereo not shown) [LAA, levogyre ascorbic acid]
efficiency of mRNA in the translation of the polypeptidic chains of collagen (human fibroblasts): about 2 times
increase in the synthesis of mRNA (collagens of type I and type III) (human fibroblasts): 2 to 3 times
increase in deposition of glucosaminoglycines in the extracellular matrix [1]: 50%
increase in synthesis of glucosaminoglycines [1]: 30 to 90%
